Measured values reported in patent US20260250289A1, “BICYCLIC HETEROCYCLES AND THEIR USE AS WRN INHIBITORS” (Novartis AG, priority 2022, published 2026).
Read-outs that look alike come from different tables or passages of the source.

Key:
[1] = target: T1, WRN helicase (aa N517-P1238) (Homo sapiens, UniProt Q14191); assay: WRN ATPase assay (DNA dependent ATP hydrolysis, ADP-Glo); format: biochemical; details: 3 hours pre-incubation, 300 micromolar ATP, FLAP26 DNA; geometric mean of at least 2
T1 construct: The core helicase motif of the WRN protein (aa N517-P1238) was produced for this assay; His (N); ZZ (N); 3C protease cleavage site (N); made in house; host or cells: Sf21 insect cells (baculovirus; virus and BIICs made in SF9)
T1 sequence (Q14191 517-1238): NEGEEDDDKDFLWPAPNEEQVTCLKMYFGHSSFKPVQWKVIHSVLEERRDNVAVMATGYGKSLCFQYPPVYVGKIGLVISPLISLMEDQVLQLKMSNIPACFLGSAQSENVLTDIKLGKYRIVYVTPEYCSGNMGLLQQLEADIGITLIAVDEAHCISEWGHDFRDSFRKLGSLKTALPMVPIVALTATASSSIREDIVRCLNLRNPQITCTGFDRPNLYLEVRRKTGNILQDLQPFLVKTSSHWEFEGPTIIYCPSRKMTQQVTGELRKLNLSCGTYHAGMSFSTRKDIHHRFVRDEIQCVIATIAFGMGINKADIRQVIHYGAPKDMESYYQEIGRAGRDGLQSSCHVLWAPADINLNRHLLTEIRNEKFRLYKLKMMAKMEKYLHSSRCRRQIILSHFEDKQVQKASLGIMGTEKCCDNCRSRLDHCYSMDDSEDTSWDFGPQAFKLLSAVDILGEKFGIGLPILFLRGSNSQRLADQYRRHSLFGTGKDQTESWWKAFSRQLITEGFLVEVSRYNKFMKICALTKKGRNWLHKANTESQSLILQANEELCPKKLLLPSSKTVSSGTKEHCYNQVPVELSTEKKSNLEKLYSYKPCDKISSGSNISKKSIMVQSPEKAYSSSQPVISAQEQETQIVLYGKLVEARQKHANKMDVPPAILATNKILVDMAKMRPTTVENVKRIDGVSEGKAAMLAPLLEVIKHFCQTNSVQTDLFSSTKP
Description: An ATPase assay was set up to measure the DNA dependent ATP hydrolysis activity of WRN helicase. This assay was used also to assess the inhibition properties of compounds of the invention on DNA dependent WRN ATPase activity.
The core helicase motif of the WRN protein (aa N517-P1238) was produced for this assay (protein production as described above). […] The ADP-Glo assay kit (Promega, Madison, WI) allowing the quantification of ADP produced in ATP hydrolysis reactions was used for setting up this assay.
Time course experiments were first performed in order to determine the best enzymatic assay conditions (including buffer conditions, reaction time and concentrations of protein, ATP and DNA substrates). A typical reaction consists of 10 nM WRN protein, 0.2 nM FLAP26, and 300 micromolar ATP in the following assay buffer: 30 mM Tris pH7.5, 2 mM MgCl2, 0.02% BSA, 50 mM NaCl, 0.1% pluronic F127 prepared in DNAse free water.
To evaluate the inhibition properties of compounds of the invention, serial dilutions were prepared in DMSO (10 half log dilutions from a 10 mM DMSO solution). […] The reaction was stopped with the addition of 5 microliters of the first ADP-Glo reagent and incubated for one hour to remove the excess amount of ATP. Afterwards, 10 microliters of ATP detection reagent was added and incubated for an additional hour before reading. Luminescence output was recorded using Tecan 1000 reader, with 5 minutes delay before reading. Each concentration of compound was tested in duplicates in the assay plate.
Following normalization of activity values for the wells to % inhibition (% inhibition=[(high control-sample)/(high control-low control)]×100), IC50 fitting was carried out from the duplicate determinations present on each plate according to [4]. Data analysis can also be carried out using commercially available software designed to derive IC50 values using 4-parameter fits (e.g. GraphPad Prism, XL fit). The reported IC50 values are the geometrical means of at least 2 independent replicates.

SW48 cells = assay: Proliferation assay SW48 (CellTiterGlo); format: cell-based; details: SW48 colon carcinoma cells, 96 hours, CellTiterGlo, geometric mean of at least 2, read-out: Proliferation Assay SW48 GI50
Description: (§1) The colon carcinoma cell lines SW48 (RRID: CVCL_1724), HCT 116 (RRID: CVCL_0291) and SNU-407 (RRID: CVCL_5058) were obtained from ATCC. The WRN-knockdown insensitive colon carcinoma cell line DLD-1 (RRID: CVCL_0248) was obtained from the Korean Cell Line Bank (KCLB), and used to generate a derivative in which the endogenous WRN gene copies were knocked out by CRISPR-mediated editing using standard CRISPR methods. The resulting cell line, DLD1-WRN-KO, was used to assess potential off-target compound effects.
SW48, SNU-407 and DLD1-WRN-KO cells were cultured in growth medium composed of RPMI-1640 (Amimed Cat #1-41F22-1), 2 mM L-Glutamine (Amimed Cat #5-10K50), 10 mM HEPES (Gibco Cat #15630-056), 1 mM sodium pyruvate (Amimed Cat #5-60F00-H), 1× Penicillin-Streptomycin (Amimed Cat #4-01F00-H) and 10% fetal calf serum (Amimed Cat #2-01F30-G, Lot #LB11566P). HCT 116 cells were cultured in growth medium composed of McCoys 5A (Amimed catalog #1-18F01-1), 2 mM L-Glutamine (Amimed Cat #5-10K50), 1× Penicillin-Streptomycin (Amimed Cat #4-01F00-H) and 10% fetal calf serum (Amimed Cat #2-01F30-G, Lot #LB11566P). All cells were maintained at 37° C. in a humidified 5% CO2 incubator.
Following filtration through a Steriflip-NY 20 μm filter (Millipore Cat #SCNY00020), trypsinized cells were seeded in 100 microliters growth medium at 2,000 (SW48) or 1,500 (SNU-407, DLD1-WRN-KO, HCT 116) cells/well into white, clear-bottom 96-well plates (Costar Cat #3903). Three replicate plates were prepared for each compound treatment condition. In addition, one plate (termed “day 0”) was prepared to quantify the number of viable cells at the time of compound addition. Following overnight incubation at 37° C. in a humidified 5% CO2 atmosphere, eight 3-fold serial dilutions of a given compound stock (obtained at a concentration of 10 mM in DMSO and stored at 4° C.) were dispensed directly into each of the triplicate assay plates using a HP 300D non-contact Digital Dispenser (TECAN). The final concentration of DMSO was normalized to 0.1% in all wells. 96 hours after compound addition, cellular ATP levels as a surrogate for cell viability was assessed following addition of 50 microliters CellTiterGlo (Promega Cat #G7573) reagent and luminescence quantification on a MPLEX multi-mode plate-reader (TECAN) following a 10 minute incubation at room temperature. The number of viable cells in the “day 0” plate were quantified identically on the day of compound addition.
For data analysis, the assay background signal that was determined in wells containing medium, but no cells, was subtracted from all other data points prior to further calculations. The extent of growth inhibition and potential cell kill was assessed by comparing the ATP levels (measured using CellTiterGlo, Promega) in compound-treated cells with those present at the time of compound addition. To this end, the following conditional concept was programmatically applied in HELIOS, an in-house software applying a multi-step decision tree to arrive at optimal concentration response curve fits (Gubler et al, SLAS DOI: 10.1177/2472555217752140) to calculate % growth (% G) for each compound-treated well: % G=(T−V0)/V0))*100 when T<V0, and % G=(T−V0)/(V−V0)))*100 when T≥V0, where V0 is the viability level at time of compound addition, while V and T represent vehicle-control and compound-treated viability levels, respectively, at the end of the compound incubation. 100%, 0% and −100% signify absence of growth inhibition, growth stasis, and complete cell kill, respectively. Compound concentrations leading to half-maximal growth inhibition (GI50) and residual cell viability at the highest tested compound concentration (Data (cmax), expressed in percent) were routinely calculated. Data analysis can also be carried out using commercially available software designed to derive IC50 values using 4-parameter fits (e.g. GraphPad Prism, XL fit). […]

DLD1-WRN-KO cells = assay: Proliferation assay DLD1-WRN-KO (CellTiterGlo, off-target effects); format: cell-based; details: 96 hours, geometric mean of at least 2
Experimental: as §1, with “The” for “The colon carcinoma cell lines SW48 (RRID: CVCL_1724), HCT 116 (RRID: CVCL_0291) and SNU-407 (RRID: CVCL_5058) were obtained from ATCC. The”, “effects. […]” for “effects.”
Three replicate plates were prepared for each compound treatment condition. In addition, one plate (termed “day 0”) was prepared to quantify the number of viable cells at the time of compound addition. Following overnight incubation at 37° C. in a humidified 5% CO2 atmosphere, eight 3-fold serial dilutions of a given compound stock (obtained at a concentration of 10 mM in DMSO and stored at 4° C.) were dispensed directly into each of the triplicate assay plates using a HP 300D non-contact Digital Dispenser (TECAN). The final concentration of DMSO was normalized to 0.1% in all wells. 96 hours after compound addition, cellular ATP levels as a surrogate for cell viability was assessed following addition of 50 microliters CellTiterGlo (Promega Cat #G7573) reagent and luminescence quantification on a MPLEX multi-mode plate-reader (TECAN) following a 10 minute incubation at room temperature. The number of viable cells in the “day 0” plate were quantified identically on the day of compound addition.
For data analysis, the assay background signal that was determined in wells containing medium, but no cells, was subtracted from all other data points prior to further calculations. The extent of growth inhibition and potential cell kill was assessed by comparing the ATP levels (measured using CellTiterGlo, Promega) in compound-treated cells with those present at the time of compound addition. […] 100%, 0% and −100% signify absence of growth inhibition, growth stasis, and complete cell kill, respectively. Compound concentrations leading to half-maximal growth inhibition (GI50) and residual cell viability at the highest tested compound concentration (Data (cmax), expressed in percent) were routinely calculated. Data analysis can also be carried out using commercially available software designed to derive IC50 values using 4-parameter fits (e.g. GraphPad Prism, XL fit). The reported GI50 values are the geometrical means of at least 2 independent replicates.

Row | Compound | IC50 [1] [nM] | GI50 (SW48 cells; Homo sapiens, SW48, 96 h) [nM] | GI50 (DLD1-WRN-KO cells) [nM] | GI50 (SW48 cells) [nM]
1 | CCc1c(N2CCN(C(=O)c3ncc4c(c3O)OCC4)CC2)c(=O)n2nc(C3=CCOCC3)nc2n1CC(=O)Nc1ccc(C(F)(F)F)cc1Cl [Example 11, N-(2-chloro-4-(trifluoromethyl)phenyl)-2-(2-(3,6-dihydro-2H-pyran-4-yl)-5-ethyl-6-(4-(7-hydroxy-2,3-dihydrofuro[3,2-c]pyridine-6-carbonyl)piperazin-1-yl)-7-oxo-[1,2,4]triazolo[1,5-a]pyrimidin-4(7H)-yl)acetamide] | 50 | 60 | > 10000 | –
2 | CCc1c(N2CCN(C(=O)C3CCOC3)CC2)c(=O)n2nc(C3=CCCCO3)nc2n1CC(=O)Nc1ccc(C(F)(F)F)cc1 (stereo not drawn) [Example 56, 2-(2-(3,4-dihydro-2H-pyran-6-yl)-5-ethyl-7-oxo-6-(4-(tetrahydrofuran-3-carbonyl)piperazin-1-yl)-[1,2,4]triazolo[1,5-a]pyrimidin-4(7H)-yl)-N-(4-(trifluoromethyl)phenyl)acetamide] | 100 | – | > 10000 | 1000
3 | CCc1c(N2CCN(C(C)=O)CC2)c(=O)n2nc(C3=CCOCC3)nc2n1CC(=O)Nc1ccc(C(F)(F)F)cc1F [Example 88, 2-(6-(4-acetylpiperazin-1-yl)-2-(3,6-dihydro-2H-pyran-4-yl)-5-ethyl-7-oxo-[1,2,4]triazolo[1,5-a]pyrimidin-4(7H)-yl)-N-(2-fluoro-4-(trifluoromethyl)phenyl)acetamide] | 500 | 3000 | > 10000 | –
4 | Cc1cccc(O)c1C(=O)N1CCN(c2c(C)n(CC(=O)Nc3ccc(C(F)(F)F)cc3)c3nc(C4=CCOCC4)nn3c2=O)CC1 [Example 25, 2-(2-(3,6-dihydro-2H-pyran-4-yl)-6-(4-(2-hydroxy-6-methylbenzoyl)piperazin-1-yl)-5-methyl-7-oxo-[1,2,4]triazolo[1,5-a]pyrimidin-4(7H)-yl)-N-(4-(trifluoromethyl)phenyl)acetamide] | 200 | 4000 | > 10000 | –
5 | CC(=O)N1CCN(c2c(C)n(CC(=O)Nc3ccc(C(F)(F)F)cc3Br)c3nc(C4=CCOCC4)nn3c2=O)CC1 [Example 32, 2-(6-(4-acetylpiperazin-1-yl)-2-(3,6-dihydro-2H-pyran-4-yl)-5-methyl-7-oxo-[1,2,4]triazolo[1,5-a]pyrimidin-4(7H)-yl)-N-(2-bromo-4-(trifluoromethyl)phenyl)acetamide] | 800 | 3000 | > 10000 | –
6 | CC(=O)N1CCN(c2c(C)n(CC(=O)Nc3ccc(C(F)(F)F)cc3)c3nc(N4CC=CCC4)nn3c2=O)CC1 [Example 121, 2-(6-(4-acetylpiperazin-1-yl)-2-(3,6-dihydropyridin-1(2H)-yl)-5-methyl-7-oxo-[1,2,4]triazolo[1,5-a]pyrimidin-4(7H)-yl)-N-(4-(trifluoromethyl)phenyl)acetamide] | 700 | 5000 | > 10000 | –
7 | Cc1nnc(C(=O)N2CCN(c3c(C)n(CC(=O)Nc4ccc(C(F)(F)F)cc4)c4nc(C5=CCOCC5)nn4c3=O)CC2)[nH]1 [Example 159, 2-(2-(3,6-dihydro-2H-pyran-4-yl)-5-methyl-6-(4-(5-methyl-4H-1,2,4-triazole-3-carbonyl)piperazin-1-yl)-7-oxo-[1,2,4]triazolo[1,5-a]pyrimidin-4(7H)-yl)-N-(4-(trifluoromethyl)phenyl)acetamide] | 600 | > 10000 | > 10000 | –
8 | CC(=O)N1CCN(c2c(C)n(CC(=O)Nc3ccc(Cl)cc3)c3nc(-c4ccccc4)nn3c2=O)CC1 [Example 3, 2-(6-(4-acetylpiperazin-1-yl)-5-methyl-7-oxo-2-phenyl-[1,2,4]triazolo[1,5-a]pyrimidin-4(7H)-yl)-N-(4-chlorophenyl)acetamide] | 100 | 3000 | 10000 | –
